In patent publication US11241480B2, “Methods for modulation of dietary and microbial exposure with compositions comprising an EGFR ligand” (Washington University, priority 2017, dated 2022):
Entries after “also recorded” stand apart in the source; their conditions may differ.

Assays:
colon draining MLN = experiment: MLN culture cytokines and colon H/E histology on DOL35; assay type: in vivo; conditions: DOL35 mice; for colon pathology (H/E sections): EGFRi DOL14 and 16 or DOL24 and 26, intracolonic EGF DOL10-21
Description: Isolation of cellular populations and flow cytometry: Small intestines or colons were harvested, rinsed with PBS, and Peyer's patches or colonic patches were removed. Epithelial cellular populations were released by incubating for 15 min three times in a 37° C. rotating incubator in HBSS media (BioWhittaker, Walkersville, Md.) containing 5 mM EDTA as previously described. Isolation of splenic, MLN and lamina propria (LP) cellular populations was performed as previously described. In some experiments, single cell suspensions of MLN were cultured in cell culture media for three days as previously described. The first wash of HBSS+EDTA was used to isolate goblet cells as below. SI and colonic LP-MNPs were identified as 7AAD^−, CD45^+, CD11c^+, MHCII^+for flow cytometric sorting. Goblet cells were identified as CD45^−, CD24^−CK18^+, UEA-I^+for flow cytometric sorting as previously described. For intracellular antigens and cytokines, cells were fixed and permeabilized overnight and stained per the manufacturers recommendations (eBioscience). Flow cytometry was performed with a FACScan cytometer (BD Biosciences, San Jose, Calif.) retrofitted with additional lasers. Data acquisition was performed using CellQuest (BD Biosciences) and Rainbow (Cytek,Fremont, Calif.) or FlowJo software (Tree Star, Ashland, OR). Data analysis was performed on a Macintosh computer running FlowJo software.
Measurement of cytokines, EGF, and immunoglobulins: Cytokines and EGF were measured using the using ELISAs for EGF (R&D systems), phosphorylated MAPK, phosphorylated EGFR, IL17 (eBioscience), IFNγ and IL-10, (R&D systems) per the manufacturers recommendations. Luminal EGF was measured in stomach, SI, and colonic contents; to isolate contents the stomach was opened and contents was added to 1 ml PBS. […] Phosphorylated MAPK, and phosphorylated EGFR was measured on epithelial cells from the SI or colon isolated by one 15 minute wash with HBSS+EDTA as described above. Cytokines were measured on supernatants from cultured MLNs.

[1] = tested on: colonic LP-APCs (LP-MNPs); experiment: Luminal antigen delivery to LP-APCs/LP-MNPs, read out by ex vivo T cell co-culture; assay type: in vivo, mice; conditions: for luminal antigen uptake by colonic APCs (expansion of Ova-specific T-cells): DOL 18 mice, agent concurrent with luminal Ova
Description: Analysis of luminal antigen delivery to LP-DCs: Mice received Ova 20 g/L (Sigma Aldrich) for 3 days prior to isolation of LP-APCs (dietary Ova FIG. 1C) or were anesthetized and 2 mg Ova (OTI assay) or 25 mg Ova (OTII assay) dissolved in phosphate buffered saline (PBS), or PBS alone (controls), was injected intraluminally into the SI or colon as previously described. Two hours later cell populations were isolated from the non-Peyer's patch bearing SI LP or non-colonic patch bearing colon LP. APC populations and Ova specific […] T-cells were isolated with flow cytometric cell sorting and cultured at a ratio of 1:10 APCs (1×10^4) to T-cells (1×10^5). As a positive control, 10 μg Ova was added to cultures of APC populations isolated from mice receiving luminal PBS. After 3 days, cultures were evaluated for the number of T-cells by flow cytometry and cell counting.
LP-MNP/T cell co-culture: 1×10^5 flow cytometrically sorted splenic CD3+CD4+Vβ8.3+ CBir1 T cells or 1×10^5 flow cytometrically sorted splenic CD3^+CD4^+Vα2^+Vβ5^+ OTI T cells were cultured with […] CD45+ MHCII+ CD11c+ flow cytometrically sorted SI or colonic LP-MNPs isolated from mice two hours following intraluminal administration of 2 mg Ova or PBS. Some wells were cultured with 10 μg Ova or 10 μg CBir1 Flagellin as a positive control. After three days, cultured cells were counted and analyzed by flow cytometry to determine absolute number of transgenic cells to calculate fold increase of T cells.

C57BL/6 mice = experiment: Oral tolerance and delayed type hypersensitivity (DTH) response to Ova; assay type: in vivo
Description: Antibiotic treatment: Mice were given a combination of antibiotics (Abx) ampicillin (1 g/L), metronidazole (1 g/L), neomycin (1 g/L), and vancomycin (500 mg/L) in drinking water for the time periods outlined in the figure legends.
EGFRi treatment: Mice were injected with 500 μg/kg tyrphostin AG1478 (an inhibitor of EGFR phosphorylation) in the neonatal, post-neonatal, or weaned phase on DOLs noted in the text or figure legends.
Oral tolerance and Delayed Type Hypersensitivity Responses: Mice, and/or nursing dams, when treated prior to weaning, were given Ova 20 g/L in drinking water, or drinking water alone for the intervals defined in the figure legend. Four weeks and six weeks following dietary Ova exposure mice were immunized subcutaneously with 100 μg Ova in incomplete Freund's Adjuvant (Sigma Aldrich). Two weeks after the last immunization mice were challenged with 20 μg Ova in the footpad, body temperature monitored for one hour, and the increase in footpad thickness evaluated using measurements taken with micrometer calipers taken before and 24 hours after challenge. To directly evaluate colonic antigen delivery and blockade of GAPs in the development of tolerance, enemas containing Ova 10 μg/gm body weight with or without 10 μg EGF were administered intrarectally every other day five times from DOL 14 to 22 (post-neonatal phase) or DOL 56 to 64 (adult). Mice were rested three weeks, and then systemically immunized and challenged in the footpad as above.

[2] = dietary Ova DOL 0-30, EGFRi DOL 6 and 8 or DOL 24 and 26

“EGF: recombinant murine EGF (Shenandoah); EGFR ligand, given luminally or intracolonically” was tested, and the “colon pathology (H/E sections)” value (colon draining MLN) was “no overt pathology”, the “luminal antigen uptake by colonic APCs (expansion of Ova-specific T-cells)” value [1] was “impaired at expanding Ova-specific T-cells” and the “luminal antigen uptake by colonic APCs (expansion of Ova-specific T-cells)” value ([1]; listed as recombinant EGF) was “inhibited GAPs and luminal antigen loading of LP-MNPs”. For the same compound, the “tolerance to luminal Ova (DTH, footpad thickness)” value (C57BL/6 mice; Ova enemas with EGF every other day DOL 14-22 (post-neonatal phase colon)) was “abrogated tolerance to luminal Ova; also recorded: attenuates tolerance to a luminal antigen”.
In the case of `COc1cc2ncnc(Nc3cccc(Cl)c3)c2cc1OC` [EGFRi, tyrphostin AG1478], the “inflammatory cytokine production in the colon draining MLN” value (colon draining MLN; EGFRi post-weaning (DOL24 and 26)) is reported as “results in inflammatory cytokine production in the colon draining MLN”, the “colon pathology (H/E sections)” value (colon draining MLN) is reported as “does not induce overt pathologic changes” and the “capacity of colonic LP-MNPs to stimulate CBir1 T cells ex vivo” value ([1]; post-weaning mice (DOL28), EGFR inhibition DOL24 and 26) is reported as “allowed colonic LP-MNPs from post-weaning mice to capture microbial antigen to stimulate CBir1 T cells ex-vivo”. The “lethargy/hypothermia upon rechallenge with sterile Ova in the footpad” value (C57BL/6 mice; [2]) was “lethargic and hypothermic”, the “oral tolerance (footpad swelling upon Ova rechallenge)” value (C57BL/6 mice; [2]) was “significantly abrogated” and the “lethargy/hypothermia upon rechallenge with sterile Ova in the footpad” value (C57BL/6 mice; dietary Ova DOL 0-30, EGFRi DOL 6 and 8 or DOL 24 and 26, listed as inhibitor of EGFR activation) was “developed hypothermia”.
